We go through 25 compounds from patent US10538521B2, “Pyrimidine derivative having antimalarial activity” (CARNA BIOSCIENCES, INC., priority 2016, dated 2020).

Experiment [1] concerns K1 strain, a drug resistant strain of Plasmodium falciparum. Nature of the experiment: In vitro antimalarial assay (p-LDH, Malstat), K1 strain. It counts as cell-based. As to conditions: read-out: Antimalarial activity (IC50 value), Strain K1. An excerpt:
(§1) For the evaluation of the antimalarial activity of the compound of the present invention, K1 strain, a drug resistant strain of Plasmodium falciparum, and FCR3 strain, a drug sensitive strain thereof, which were generous gift from Professor Kiyoshi Kita of the Graduate School of Medicine and Faculty of Medicine, the University of Tokyo, were used to measure the in vitro antimalarial activity of the compound against those Plasmodium species according to the method established by Otoguro et al. (Otoguro, K., Kohana, A., Manabe, C., Ishiyama, A., Ui, H., Shiomi, K., Yamada, H. & Omura, S.: Potent antimalarial activity of polyether antibiotic, X-206. J. Antibiot., 54: 658-663, (2001)).
(§2) The parasites were grown based on a slightly modified method from the original method reported by Trager and Jensen (Trager, W. and Jensen, J.: Human malaria parasites in continuous culture, Science, 193: 673-677, (1976)), and those which were maintained and sub-cultured by the method were used. More specifically, in a culture dish, erythrocytes infected with the protozoa, which had been sub-cultured using a RPMI 1640 medium to which 10% human plasma had been added and fresh human erythrocytes, were diluted (hematocrit value: 2 to 5%, parasitaemia: 0.25 to 1%), and were cultured at 37° C. in a mixed gas of 3% O2-4% CO2-93% N2, and continuously cultured while changing the medium and adding fresh erythrocytes at 2- or 3-day intervals.
(§3) A drug susceptibility test was performed by modifying the method established by Desjardins et al. (Desjardins, R. E., Canfield, C. J., Haynes, D. E. and Chulay, J. D.: Quantitative assessment of antimalarial activity in vitro by a semiautomated microdilution technique. Antimicrob. Agents Chemother., 16: 710-718 (1979)). More specifically, 190 μL of a suspension of protozoa which had been precultured (hematocrit value: 2%, parasitaemia: 0.5 or 1%) and 10 μL of a solution of a test compound (5% DMSO solution) serially diluted so that the final concentration was 12.5 to 0.0001 μM were put in each well of a 96-well plate, and after mixing, the same was cultured for 72 hours in the above mixed gas.
(§4) For the measurement of the growth of protozoa, the method established by Makler (Makler, M. T., Rise, J. M., Williams, J. A., Bancroft, J. E., Piper, R. C., Gibbins, B. L. and Hinrichs, D. J.: Parasite lactate dehydrogenase as an Assay for Plasmodium falciparum drug sensitivity, Am. J. Med. Hyg., 48: 739-741 (1993)) was modified to colorimetrically determine parasite lactate dehydrogenase (p-LDH) using Malstat reagent (Flow Inc., USA).
(§5) More specifically, 72 hours after the culture, the 96-well plate was directly frozen at −20° C. for 18 hours and melted at 37° C. to hemolyze the protozoan-infected erythrocytes and destroy the protozoa to prepare a crude enzyme solution. 100 μL of Malstat reagent and 20 μL of the crude enzyme solution were added to and mixed in each well of another 96-well plate, and after reacting for 15 minutes at room temperature, 20 μL of a nitroblue tetrazolium 2 mg/mL phenazine ethosulfate 0.1 mg/mL=1:1 solution was added to the respective wells, and reaction was performed in dark conditions at room temperature for 2 hours.
(§6) The absorbance of the blue formazan product formed by the reaction was measured at a measurement wavelength of 655 nm by using a microplate reader (Labsystems, Finland) to colorimetrically determine the growth of the protozoa. The 50% growth inhibitory concentration for the protozoa of the compound (IC50 value) was determined based on the concentration-response curve of the compound.

Experiment [2] has as its system FCR3 strain, a drug sensitive strain of Plasmodium falciparum. Nature of the experiment: In vitro antimalarial assay (p-LDH, Malstat), FCR3 strain. It counts as cell-based. As to conditions: P. falciparum FCR3 (drug sensitive), 72 h culture, p-LDH readout, read-out: Antimalarial activity (IC50 value), Strain FCR3.
Description: as §1, §2, §3, §4, §5, §6

[3] abbreviates: P. falciparum K1 (drug resistant), 72 h culture, p-LDH readout.

Counter-ions that a name gives are not always drawn. Like-named read-outs stand apart in the source and are kept apart here. Some results are limits rather than exact numbers.

For orientation: IC50 means the concentration at which inhibition is half-maximal. Consider `Cc1cc(C)nc(Nc2nc(Nc3ccn4ccnc4c3)cc(N3C[C@@H](C)[C@H](C)C3)n2)c1` (relative stereo) [Example 193, N2-(4,6-dimethylpyridin-2-yl)-6-[trans-3,4-dimethylpyrrolidin-1-yl]-N4-(imidazo[1,2-a]pyridin-7-yl)pyrimidine-2,4-diamine], for which the IC50 in experiment [1] (setting [3]) and in experiment [2] was less than 0.1 µM in each case. For the compound `COc1ccc(Nc2nc(Nc3ccn4ccnc4c3)cc(N3CCOCC3)n2)cn1` [Example 1, N4-(Imidazo[1,2-a]pyridin-7-yl)-N2-(6-methoxypyridin-3-yl)-6-morpholinopyrimidine-2,4-diamine], the IC50 in experiment [1] (setting [3]) and in experiment [2] was less than 0.1 µM each time.

Turning to `Cc1cc(C)nc(Nc2nc(Nc3ccn4ccnc4c3)cc(N3CCOCC3)n2)c1` [Example 2, N2-(4,6-dimethylpyridin-2-yl)-N4-(imidazo[1,2-a]pyridin-7-yl)-6-morpholinopyrimidine-2,4-diamine], the IC50 in experiment [1] (setting [3]) and in experiment [2] was less than 0.1 µM throughout. As to `c1cc(Nc2nc(Nc3ccn4ccnc4c3)cc(N3CCOCC3)n2)ccn1` [Example 3, N4-(imidazo[1,2-a]pyridin-7-yl)-6-morpholino-N2-(pyridin-4-yl)pyrimidine-2,4-diamine dihydrochloride], the IC50 in experiment [1] (K1, 72 h) lay in the range of 1 to 10 µM.

On to `c1cncc(Nc2nc(Nc3ccn4ccnc4c3)cc(N3CCOCC3)n2)c1` [Example 4, N4-(Imidazo[1,2-a]pyridin-7-yl)-6-morpholino-N2-(pyridin-3-yl)pyrimidine-2,4-diamine], for which the IC50 in experiment [1] (setting [3]) and in experiment [2] was 0.1 to 1 µM each time. For `COc1ncccc1Nc1nc(Nc2ccn3ccnc3c2)cc(N2CCOCC2)n1` [Example 5, N4-(Imidazo[1,2-a]pyridin-7-yl)-N2-(2-methoxypyridin-3-yl)-6-morpholinopyrimidine-2,4-diamine], the IC50 in experiment [1] (setting [3]) and in experiment [2] was 1 to 10 µM in each case.

With `Fc1cncc(Nc2nc(Nc3ccn4ccnc4c3)cc(N3CCOCC3)n2)c1` [Example 6, N2-(5-Fluoropyridin-3-yl)-N 4-(imidazo[1,2-a]pyridin-7-yl)-6-morpholinopyrimidine-2,4-diamine], the IC50 in experiment [1] (setting [3]) and in experiment [2] was 0.1 to 1 µM each time.

For the compound `CCOc1ccc(Nc2nc(Nc3ccn4ccnc4c3)cc(N3CCOCC3)n2)cn1` [Example 7, N2-(6-Ethoxypyridin-3-yl)-N4-(imidazo[1,2-a]pyridin-7-yl)-6-morpholinopyrimidine-2,4-diamine], the IC50 in experiment [1] (setting [3]) and in experiment [2] was less than 0.1 µM each time. As to `c1ncc(Nc2nc(Nc3ccn4ccnc4c3)cc(N3CCOCC3)n2)cn1` [Example 8, N4-(Imidazo[1,2-a]pyridin-7-yl)-6-morpholino-N2-(pyrimidin-5-yl)pyrimidine-2,4-diamine], the IC50 in experiment [1] (setting [3]) fell in the range of 1 to 10 µM; in experiment [2] it was 0.1 to 1 µM. Regarding `Cc1cccnc1Nc1nc(Nc2ccn3ccnc3c2)cc(N2CCOCC2)n1` [Example 9, N4-(Imidazo[1,2-a]pyridin-7-yl)-N2-(3-methylpyridin-2-yl)-6-morpholinopyrimidine-2,4-diamine], the IC50 in experiment [1] (setting [3]) was 0.1 to 1 µM; in experiment [2] it was less than 0.1 µM. Turning to `Cc1cccc(Nc2nc(Nc3ccn4ccnc4c3)cc(N3CCOCC3)n2)n1` [Example 10, N4-(Imidazo[1,2-a]pyridin-7-yl)-N2-(6-methylpyridin-2-yl)-6-morpholinopyrimidine-2,4-diamine], the IC50 in experiment [1] (setting [3]) and in experiment [2] was less than 0.1 µM throughout. For the compound `Fc1ncccc1Nc1nc(Nc2ccn3ccnc3c2)cc(N2CCOCC2)n1` [Example 11, N2-(2-Fluoropyridin-3-yl)-N4-(imidazo[1,2-a]pyridin-7-yl)-6-morpholinopyrimidine-2,4-diamine], the IC50 in experiment [1] (setting [3]) is 1 to 10 µM; in experiment [2], 0.1 to 1 µM. Taken in the same sequence, the figures for `Fc1ccc(Nc2nc(Nc3ccn4ccnc4c3)cc(N3CCOCC3)n2)cn1` [Example 12, N2-(6-Fluoropyridin-3-yl)-N4-(imidazo[1,2-a]pyridin-7-yl)-6-morpholinopyrimidine-2,4-diamine] were 0.1 to 1 µM and 0.1 to 1 µM. Taken in the same sequence, the figures for `Fc1ccc(Nc2nc(Nc3ccn4ccnc4c3)cc(N3CCOCC3)n2)nc1` [Example 13, N2-(5-Fluoropyridin-2-yl)-N4-(imidazo[1,2-a]pyridin-7-yl)-6-morpholinopyrimidine-2,4-diamine] were 0.1 to 1 µM and less than 0.1 µM. Taken in the same sequence, the figures for `Fc1cccc(Nc2nc(Nc3ccn4ccnc4c3)cc(N3CCOCC3)n2)n1` [Example 14, N2-(6-Fluoropyridin-2-yl)-N4-(imidazo[1,2-a]pyridin-7-yl)-6-morpholinopyrimidine-2,4-diamine] were 1 to 10 µM and 0.1 to 1 µM. Take `CC(C)Oc1ccc(Nc2nc(Nc3ccn4ccnc4c3)cc(N3CCOCC3)n2)cn1` [Example 15, N4-(Imidazo[1,2-a]pyridin-7-yl)-N2-(6-isopropoxypyridin-3-yl)-6-morpholinopyrimidine-2,4-diamine]: the IC50 in experiment [1] (setting [3]) and in experiment [2] was less than 0.1 µM in each case. As for `c1cnc(Nc2nc(Nc3ccn4ccnc4c3)cc(N3CCOCC3)n2)nc1` [Example 16, N4-(Imidazo[1,2-a]pyridin-7-yl)-6-morpholino-N2-(pyrimidin-2-yl)pyrimidine-2,4-diamine], the IC50 in experiment [1] (setting [3]) lay in the range of 1 to 10 µM. Consider `Cc1ccnc(Nc2nc(Nc3ccn4ccnc4c3)cc(N3CCOCC3)n2)c1` [Example 17, N4-(Imidazo[1,2-a]pyridin-7-yl)-N2-(4-methylpyridin-2-yl)-6-morpholinopyrimidine-2,4-diamine], for which the IC50 in experiment [1] (setting [3]) and in experiment [2] was less than 0.1 µM throughout. `Cc1ccc(Nc2nc(Nc3ccn4ccnc4c3)cc(N3CCOCC3)n2)nc1` [Example 18, N4-(Imidazo[1,2-a]pyridin-7-yl)-N2-(5-methylpyridin-2-yl)-6-morpholinopyrimidine-2,4-diamine]: the IC50 in experiment [1] (setting [3]) and in experiment [2] was less than 0.1 µM in each case.

Consider `COc1cncc(Nc2nc(Nc3ccn4ccnc4c3)cc(N3CCOCC3)n2)c1` [Example 19, N4-(Imidazo[1,2-a]pyridin-7-yl)-N2-(5-methoxypyridin-3-yl)-6-morpholinopyrimidine-2,4-diamine], for which the IC50 in experiment [1] (setting [3]) and in experiment [2] was 0.1 to 1 µM each time. On to `Oc1ccc(Nc2nc(Nc3ccn4ccnc4c3)cc(N3CCOCC3)n2)cn1` [Example 24, 5-(4-(Imidazo[1,2-a]pyridin-7-ylamino)-6-morpholinopyrimidin-2-ylamino)pyridin-2-ol], for which, in experiment [1] (setting [3]), the IC50 fell in the range of 1 to 10 µM. Same read-out and setting: in the case of `CCOc1ccc(Nc2nc(Nc3ccn4ccnc4c3)cc(N3CCN(C)[C@@H](C)C3)n2)cn1` [Example 52, (S)-6-(3,4-Dimethylpiperazin-1-yl)-N2-(6-ethoxypyridin-3-yl)-N4-(imidazo[1,2-a]pyridin-7-yl) pyrimidine-2,4-diamine] it was 1 to 10 µM; in that of `CC(C)Oc1ccc(Nc2nc(Nc3ccn4ccnc4c3)cc(N3CCN(C)[C@@H](C)C3)n2)cn1` [Example 56, (S)-6-(3,4-dimethylpiperazin-1-yl)-N4-(imidazo[1,2-a]pyridin-7-yl)-N2-(6-isopropoxypyridin-3-yl)pyrimidine-2,4-diamine], 1 to 10 µM; in that of `CC(C)Oc1ccc(Nc2nc(Nc3ccn4ccnc4c3)cc(N3CCN(C)CC3)n2)cn1` [Example 59, N4-(imidazo[1,2-a]pyridin-7-yl)-N2-(6-isopropoxypyridin-3-yl)-6-(4-methylpiperazin-1-yl) pyrimidine-2,4-diamine], 1 to 10 µM.

Take `C=CCOc1ccc(Nc2nc(Nc3ccn4ccnc4c3)cc(N3CCOCC3)n2)cn1` [Example 76, N2-(6-(allyloxy)pyridin-3-yl)-N4-(imidazo[1,2-a]pyridin-7-yl)-6-morpholinopyrimidine-2,4-diamine]: the IC50 in experiment [1] (setting [3]) lay in the range of 1 to 10 µM.
